Holding throughout (format): cell-based
Assay [1] relates to HT-29, SF-268, PC-3, MDA-MB-231. As to the kind of experiment: Average GI50 over the four cell lines, method (a). The settings on record: for GI50: read-out: Average (GI50 μM); for anticancer activity compared with Compound 1: four cell lines. Here is the method:
(§1) Compounds were dissolved at 10 mM in DMSO. Dilution in vehicle to concentrations of 30, 10, 3, 1 and 0.3 μM were prepared immediately before assays. Depending on the cell line's growth characteristics, 4000-10000 cells were plated in two 96-wells pates (day 0) and incubated for 16 hours. The following day, propidium iodide was added to one of the two plates and fluorescence measured (Tz). Test compounds were added to the second plate, as well as vehicle control, and cells further incubated for 96 hours. Each compound was tested at each concentration and in triplicates. The equivalent cell number was determined after adding propidium iodide by measuring the signal by fluorescence (C for control).

The subject of assay [2] is MDA-MB-231 (mammary gland adenocarcinoma). As to the kind of experiment: In vitro cytotoxic activity (GI50), method (a), propidium iodide. The settings on record: read-out: MDA-MB-231 (GI50 μM). How it is done: as §1
For assay [3], the system named is SF268 (CNS). The assay is described as above. The settings on record: read-out: SF-268 (GI50 μM). Here is the method:
as §1

In assay [4] the test system is PC-3 (prostate adenocarcinoma). The assay is described as above. The settings on record: read-out: PC-3 (GI50 μM). How it is done: as §1
The subject of assay [5] is HT-29 (colorectal carcinoma). The assay is described as above. The settings on record: read-out: HT-29 (GI50 μM). How it is done: as §1
For assay [6], the system named is MDA-MB-231 (mammary gland adenocarcinoma). As to the kind of experiment: In vitro cytotoxic activity (GI50), method (b), propidium iodide. To be noted: Homo sapiens, 96 hrs. Here is the method: (§2) Row H was filled wih medium only (150 μL, negative control-medium).
Assay [7] concerns SF268 (CNS). The description is as above. To be noted: Homo sapiens, SF-268, 96 hrs. How it is done:
as §2

Assay [8] deals with PC-3 (prostate adenocarcinoma). Described as above. To be noted: 96 hrs. Here is the method:
as §2

Assay [9] has as its system HT-29 (colorectal carcinoma). The assay is described as above. To be noted: Homo sapiens, 96 hrs. How it is done:
as §2

For assay [10], the system named is HT-29, SF-268, PC-3, MDA-MB-231. As to the kind of experiment: Average GI50 over the four cell lines, method (b). The settings on record: for GI50: values > 30 not considered; for anticancer activity compared with Compound 1: four cell lines. How it is done:
as §2

The mark [11] stands for this setting: method (a), values > 30 not considered.
The mark [12] stands for this setting: Homo sapiens, MDA-MB-231, method (a), 96 hours.
Setting [13] is: Homo sapiens, SF-268, method (a), 96 hours.
The mark [14] stands for this setting: Homo sapiens, HT-29, method (a), 96 hours.

As a reminder, the GI50 is the concentration giving 50% growth inhibition.

The structures appear in SMILES notation.

For `CC(C)=CCC/C(C)=C/CC/C(C)=C/CN1C(=O)c2cccc(O)c2N(Cc2ccccc2)c2c(O)cc(O)cc21` [Compound 3, 5-benzyl-10-farnesyl-4,6,8-trihydroxy-5,10-dihydro-dibenzo[b,e][1,4]diazepin-11-one], the GI50 in assay [1] (setting [11]) was 6.18 µM; in assay [2] (setting [12]), 6.32 µM; with SF268 (CNS) [3] (setting [13]) it was 5.73 µM; in assay [4] (method (a), 96 hours), 5.36 µM; in [5] (setting [14]), 7.3 µM.
For the compound `COc1cccc2c1Nc1c(O)cc(O)cc1N(C/C=C(\C)CC/C=C(\C)CCC=C(C)C)C2=O` [Compound 4, 10-farnesyl-6,8-dihydroxy-4-methoxy-5,10-dihydro-dibenzo[b,e][1,4]diazepin-11-one], the GI50 was found to be 9.2 µM in assay [1] (setting [11]); 11.3 µM in assay [2] (setting [12]); 4.97 µM with SF268 (CNS) [3] (setting [13]); 5.86 µM in [4] (method (a), 96 hours); 14.7 µM in assay [5] (setting [14]).
On the same counts, the results for `COc1cc(O)cc2c1Nc1c(O)cccc1C(=O)N2C/C=C(\C)CC/C=C(\C)CCC=C(C)C` [Compound 5, 10-farnesyl-4,8-dihydroxy-6-methoxy-5,10-dihydro-dibenzo[b,e][1,4]diazepin-11-one] are 16 µM, 20.5 µM, 13.4 µM, 15.6 µM and 14.4 µM.
Regarding `COc1cc(OC)c2c(c1)N(C/C=C(\C)CC/C=C(\C)CCC=C(C)C)C(=O)c1cccc(O)c1N2` [Compound 6, 10-farnesyl-4-hydroxy-6,8-dimethoxy-5,10-dihydro-dibenzo[b,e][1,4]diazepin-11-one], the GI50 in assay [1] (setting [11]) was 20.8 µM; in [2] (setting [12]), 24.6 µM; in the assay on SF268 (CNS) [3] (setting [13]), 18.9 µM; in assay [4] (method (a), 96 hours) it was 19 µM; in assay [5] (setting [14]), over 30 µM.
On the same counts, the results for `COc1cccc2c1Nc1c(OC)cc(O)cc1N(CC=C(C)CCC=C(C)CCC=C(C)C)C2=O` [Compound 7, 10-farnesyl-8-hydroxy-4,6-dimethoxy-5,10-dihydro-dibenzo[b,e][1,4]diazepin-11-one] are 16.1 µM, 17.4 µM, 18.5 µM, 14.6 µM and 14.1 µM.
For the compound `CC(=O)Oc1cc(OC(C)=O)c2c(c1)N(CC=C(C)CCC=C(C)CCC=C(C)C)C(=O)c1cccc(O)c1N2` [Compound 9, 6,8-diacetoxy-10-farnesyl-4-hydroxy-5,10-dihydro-dibenzo[b,e][1,4]diazepin-11-one], the GI50 in [1] worked out at 4.6 µM; in assay [2] (Homo sapiens, MDA-MB-231, 96 h), 2.48 µM; in the assay with SF268 (CNS) [3] (Homo sapiens, SF-268, 96 h), 1.88 µM; in assay [4] (96 h), 1.44 µM; in [5] (Homo sapiens, HT-29, 96 h), 12.6 µM.
On the same counts, the results for `CC(=O)Oc1cccc2c1Nc1c(OC(C)=O)cc(O)cc1N(CC=C(C)CCC=C(C)CCC=C(C)C)C2=O` [Compound 10, 4,6-diacetoxy-10-farnesyl-8-hydroxy-5,10-dihydro-dibenzo[b,e][1,4]diazepin-11-one] are 4.48 µM, 1.55 µM, 2.02 µM, 1.35 µM and 13 µM.
On the same counts, the results for `CC(=O)Oc1cc(O)c2c(c1)N(CC=C(C)CCC=C(C)CCC=C(C)C)C(=O)c1cccc(OC(C)=O)c1N2` [Compound 11, 4,8-diacetoxy-10-farnesyl-6-hydroxy-5,10-dihydro-dibenzo[b,e][1,4]diazepin-11-one] are 8.72 µM, 7.72 µM, 5.79 µM, 5.35 µM and 16 µM.
In the case of `CC(=O)Oc1cc(OC(C)=O)c2c(c1)N(CC=C(C)CCC=C(C)CCC=C(C)C)C(=O)c1cccc(OC(C)=O)c1N2` [Compound 12, 4,6,8-triacetoxy-10-farnesyl-5,10-dihydro-dibenzo[b,e][1,4]diazepin-i 1-one], in assay [1] (method (a)), the “anticancer activity compared with Compound 1” value is on record as “generally more active than Compound 1”. The GI50 in [1] (setting [11]) is 3.82 µM; in [2] (method (a), 96 hours), 2.79 µM; with SF268 (CNS) [3] (method (a), 96 hours), 1.95 µM; in assay [4] (method (a), 96 hours), 1.2 µM; in assay [5] (method (a), 96 hours), 9.33 µM.
As to `CC(C)CCCC(C)CCCC(C)CCN1C(=O)c2cccc(O)c2Nc2c(O)cc(O)cc21` (stereo not shown) [Compound 46, 10-(3,7,11-trimethyldodecyl)-4,6,8-trihydroxy-5,10-dihydro-dibenzo[b,e][1,4]diazepin-11-one], the “anticancer activity compared with Compound 1” value in assay [1] (method (a)) was “generally more active than Compound 1”. The GI50 in [1] (setting [11]) was 1.62 µM; in assay [2] (setting [12]), 0.59 µM; in the assay on SF268 (CNS) [3] (setting [13]), 0.72 µM; in assay [4] (method (a), 96 hours), 0.9 µM; in assay [5] (setting [14]) it was 4.26 µM.
As to `CC(=O)NC(C)(CCC=C(C)C)CCC/C(C)=C/CN1C(=O)c2cccc(O)c2Nc2c(O)cc(O)cc21` (stereo not shown) [Compound 92, 10-(7-acetamido-3,7,11-trimethyldodeca-2,10-dienyl)-4,6,8-trihydroxy-5,10-dihydro-dibenzo[b,e][1,4]diazepin-11-one], the 50% growth inhibitory concentration (GI50) was 11.1 µM in assay [6]; 13.5 µM in the assay on SF268 (CNS) [7]; 16.6 µM in assay [8]; over 30 µM in assay [9]; 13.7 µM in assay [10].
Consider `CC(C)=CCC/C(C)=C/CC/C(C)=C/CN1C(=O)c2cccc(O)c2Nc2c1cc(O)c(Br)c2O` [Compound 97, 10-(farnesyl)-7-bromo-4,6,8-trihydroxy-5,10-dihydro-dibenzo[b,e][1,4]diazepin-11-one], for which the GI50 came to 2.02 µM in assay [6]; 2.04 µM in the assay on SF268 (CNS) [7]; 1.19 µM in [8]; 2.02 µM in [9]; 1.82 µM in assay [10]. The “anticancer activity compared with Compound 1” value in assay [10] is recorded as “generally more active than Compound 1”.
For `[2H]C([2H])([2H])N1c2c(O)cccc2C(=O)N(C/C=C(\C)CC/C=C(\C)CCC=C(C)C)c2cc(O)cc(O)c21` [Compound 98, 10-Farnesyl-4,6,8-trihydroxy-5-(trideuteriomethyl)-5,10-dihydro-dibenzo[b,e][1,4]diazepin-11-one], the GI50 is 0.51 µM in assay [6]; 0.16 µM in the assay with SF268 (CNS) [7]; 0.82 µM in [8]; 0.69 µM in [9]; 0.54 µM in [10]. Moreover, the “anticancer activity compared with Compound 1” value in [10] was “better anticancer activity than Compound 1”.
Turning to `C/C(=C\CN1C(=O)c2cccc(O)c2N(C)c2c(O)cc(O)cc21)CCCC(C)CCCC(C)C` (stereo not shown) [Compound 100, 10-(3,7,11-trimethyl-2-dodecenyl)-4,6,8-trihydroxy-5-methyl-5,10-dihydro-dibenzo[b,e][1,4]diazepin-11-one], the GI50 in assay [6] is 0.37 µM; in the assay on SF268 (CNS) [7], 0.23 µM; in assay [8], 0.65 µM; in [9] it was 0.69 µM; in assay [10], 0.49 µM. Moreover, the “anticancer activity compared with Compound 1” value in assay [10] is “better anticancer activity than Compound 1”.
Turning to `CCOC(=O)CN1c2c(O)cccc2C(=O)N(C/C=C(\C)CC/C=C(\C)CCC=C(C)C)c2cc(O)cc(O)c21` [Compound 101, (10-Farnesyl-4,6,8-trihydroxy-5,10-dihydrodibenzo[b,e][1,4]diazepin-11-on-5-yl)acetic acid ethyl ester], the GI50 worked out at 3.67 µM in assay [6]; 3.27 µM with SF268 (CNS) [7]; 8.73 µM in [8]; 18.2 µM in [9]; 8.47 µM in [10].
On the same counts, the results for `CC(C)=CCC/C(C)=C/CC/C(C)=C/CN1C(=O)c2cccc(OC(=O)c3ccccc3)c2Nc2c(OC(=O)c3ccccc3)cc(OC(=O)c3ccccc3)cc21` [Compound 105, 4,6,8-tribenzoyloxy-10-farnesyl-5,10-dihydro-dibenzo[b,e][1,4] diazepin-11-one] are over 30 µM, 28.2 µM, over 30 µM, over 30 µM and 28.2 µM.

The record behind these values is patent publication US20060079512A1, “Dibenzodiazepinone analogues, processes for their production and their use as pharmaceuticals” (Ecopia BioSciences, Inc., priority 2003, published 2006).
